From patent publication US6943191B1, “Disubstituted lavendustin A analogs and pharmaceutical composition comprising the analogs” (The United States of America as represented by the …, priority 1998, dated 2005)

Assays:
Type in all cases: in vivo, human
MDA-MB-231 = assay: Hollow fiber assay in mice, MDA-MB-231; conditions: QD X 4, Day 4; for % T/C MDA-MB-231 IP: IP fibers; for % T/C MDA-MB-231 SC: SC fibers
Experimental: (§1) Compounds satisfying Formulas 1 and 2 also have been tested for in vivo activity in the hollow fiber assay. See Example 12 below for the procedure used for the in vivo tests. Each compound tested was tested against a minimum of 12 human cancer cell lines. Data is reported as % T/C (i.e., the […]) for each of the 2 compound doses against each of the cell lines with separate values calculated for the intraperitoneal and subcutaneous samples, with a target value for % T/C being about 50 or less.
(§2) Compounds were selected for further in vivo testing in standard subcutaneous xenograft models on the basis of several hollow fiber assay criteria. These criteria include: (1) a % T/C of 50 or less in 10 of the 48 possible test combinations (12 cell lines×2 sites×2 compound doses); (2) activity at a distance (intrapentoneal drug/subcutaneous culture) in a minimum of 4 of the 24 possible combinations; and/or (3) a net cell kill of 1 or more cell lines in either implant site. To simplify evaluation, a point system has been adopted which allows rapid assessment of a compound's activity. A value of 2 is assigned for each compound dose which results in a 50% or greater reduction in viable cell mass. The intraperitoneal and subcutaneous samples were scored separately so that criteria (1) and (2) could be evaluated. Compounds with a combined IP+SC score≧20, an SC score≧8, or a net cell kill of one or more cell lines were referred for xenograft testing. These criteria have been statistically validated by comparing the activity outcomes of greater than 80 randomly selected compounds in the hollow fiber assay and in the xenograft testing.
(§3) This example describes the method used for in vivo testing of mice. Human cancer cells were cultivated in polyvinylidene fluoride (PVDF) hollow fibers. A sample of each cancer cell line was implanted intraperitoneally and subcutaneously in mice. Each mouse received a total of 6 fibers, 3 intraperitoneally and 3 subcutaneously, representing 3 distinct cancer cell lines. Three mice were treated with compounds made according to the present invention at each of two test doses intraperitoneally using a QD×4 treatment schedule. […] Anticancer effects were assessed by determining viable cell mass for each of the coil line using a formazan dye (MTT) conversion assay. From this, the % TIC was calculated using the average optical density of the compound-treated samples divided by the average optical density of the vehicle controls. In addition, the net increase in cell mass was determined for each sample as samples of fiber cultures were assessed for viable cell mass on the day of implantation into mice. This allowed cytostatic and cytocidal capacities of these compounds to be assessed.

SW-620 = assay: Hollow fiber assay in mice, SW-620; conditions: QD X 4, Day 4; for % T/C SW-620 IP: IP fibers; for % T/C SW-620 SC: SC fibers
Experimental: as §1, §2, §3

OVCAR-5 = assay: Hollow fiber assay in mice, OVCAR-5; conditions: QD X 4, Day 4; for % T/C OVCAR-5 IP: IP fibers; for % T/C OVCAR-5 SC: SC fibers
Experimental: as §1, §2, §3

MDA-MB-435 = assay: Hollow fiber assay in mice, MDA-MB-435; conditions: QD X 4, Day 4; for % T/C MDA-MB-435 IP: IP fibers; for % T/C MDA-MB-435 SC: SC fibers
Experimental: as §1, §2, §3

SF-295 = assay: Hollow fiber assay in mice, SF-295; conditions: QD X 4, Day 4; for % T/C SF-295 IP: IP fibers; for % T/C SF-295 SC: SC fibers
Experimental: as §1, §2, §3

UACC-62 = assay: Hollow fiber assay in mice, UACC-62; conditions: QD X 4, Day 4; for % T/C UACC-62 IP: IP fibers; for % T/C UACC-62 SC: SC fibers
Experimental: as §1, §2, §3

U251 = assay: Hollow fiber assay in mice, U251; conditions: QD X 4, Day 4; for % T/C U251 IP: IP fibers; for % T/C U251 SC: SC fibers
Experimental: as §1, §2, §3

## O=C(OC12CC3CC(CC(C3)C1)C2)c1ccc(NCc2cc(O)ccc2O)cc1 [Compound 6, 4′-adamantylbenzoate-1′-N-2,5-dihydroxybenzylamine]
MDA-MB-231; 33.50 mg/kg/dose IP
  % T/C MDA-MB-231 IP: >100%
  % T/C MDA-MB-231 SC: 67%
MDA-MB-231; 50.00 mg/kg/dose IP
  % T/C MDA-MB-231 IP: >100%
  % T/C MDA-MB-231 SC: 92%
SW-620; 33.50 mg/kg/dose IP
  % T/C SW-620 IP: >100%
  % T/C SW-620 SC: 94%
SW-620; 50.00 mg/kg/dose IP
  % T/C SW-620 IP: >100%
  % T/C SW-620 SC: 80%
OVCAR-5; 33.50 mg/kg/dose IP
  % T/C OVCAR-5 IP: >100%
  % T/C OVCAR-5 SC: 87%
OVCAR-5; 50.00 mg/kg/dose IP
  % T/C OVCAR-5 IP: 46%
  % T/C OVCAR-5 SC: 75%
MDA-MB-435; 33.50 mg/kg/dose IP
  % T/C MDA-MB-435 IP: >100%
  % T/C MDA-MB-435 SC: 94%
MDA-MB-435; 50.00 mg/kg/dose IP
  % T/C MDA-MB-435 IP: 72%
  % T/C MDA-MB-435 SC: 99%
SF-295; 33.50 mg/kg/dose IP
  % T/C SF-295 IP: >100%
  % T/C SF-295 SC: >100%
SF-295; 50.00 mg/kg/dose IP
  % T/C SF-295 IP: 88%
  % T/C SF-295 SC: 88%
UACC-62; 33.50 mg/kg/dose IP
  % T/C UACC-62 IP: >100%
  % T/C UACC-62 SC: 99%
UACC-62; 50.00 mg/kg/dose IP
  % T/C UACC-62 IP: >100%
  % T/C UACC-62 SC: 99%
U251; 33.50 mg/kg/dose IP
  % T/C U251 IP: 100%
  % T/C U251 SC: >100%
U251; 50.00 mg/kg/dose IP
  % T/C U251 IP: >100%
  % T/C U251 SC: >100%
